According to patent US10030027B2, “Soluble guanylate cyclase stimulators” (MERCK SHARP & DOHME CORP., priority 2015, dated 2018):

Assays:
[1] = biological target: sGC α1/β1 heterodimer (Homo sapiens (Human), UniProt Q02108+Q02153); assay: Cell-based sGC functional assay (cyclic GMP assay for sGC activator: CASA assay); set-up: % Activation: concentration or dose not given beside the values; settings: CHO-K1/sGC cells; for Emax: CHO-K1, activity expressed as percentage of compound A (standard), read-out: % Activation; for EC50: inflection point, 4P fit, read-out: IP; for % Activation: activity expressed as percentage of compound A (standard)
In short: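 CHO-K1 cells stably expressing sGC α1/β1 were pre-incubated with or without 1 μM DETA-NO (30 min, 25 °C), then exposed to compounds for 1 hr at 37 °C with 0.5 mM IBMX. Intracellular cGMP was read by HTRF and expressed as a percentage of a reference heme-dependent activator's maximum.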

[2] = biological target: human recombinant sGC enzyme (Homo sapiens (Human), UniProt Q02108+Q02153); assay: Size Exclusion Chromatography (SEC) competition binding assay using [3H] Ex-77B as the radioligand; settings: [3H] Ex-77B radioligand, 24 hours at 37° C.
In short: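 Recombinant human sGC binding measured by competition against tritiated Ex-77B radioligand, with non-specific binding defined by 1 μM unlabeled Ex-77B.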

Emax [1] [%]	EC50 [1] [nM]	Ki [2] [nM]	% Activation [1] [%]	Structure (SMILES)
127	439	0.099		CC1(c2nc(-c3ccc(C(=O)O)cc3)co2)C(=O)Nc2nc(-c3nn(Cc4ccccc4F)c4cc(Cl)ccc34)nc(N)c21 (centres unmarked) [Example 164A, 4-(2-{4-amino-2-[6-chloro-1-(2-fluorobenzyl)-1H-indazol-3-yl]-5-methyl-6-oxo-6,7-dihydro-5H-pyrrolo[2,3-d]pyrimidin-5-yl}-1,3-oxazol-4-yl) benzoic acid]
115	895	0.326		CC1(c2ccc(CCC(=O)O)c(O)c2)C(=O)Nc2nc(-c3nn(CCC(F)(F)C(F)(F)F)c4cc(Cl)ccc34)nc(N)c21 (centres unmarked) [Example 122B, 3-(4-{4-Amino-2-[6-chloro-1-(3,3,4,4,4-pentafluorobutyl)-1H-indazol-3-yl]-5-methyl-6-oxo-6,7-dihydro-5H-pyrrolo[2,3-d]pyrimidin-5-yl}-2-hydroxyphenyl)propanoic acid]
	529	0.087	127.9	CC1CCC(Cn2nc(-c3nc(N)c4c(n3)NC(=O)C4(C)c3nc(CC(C)(C)C(=O)O)co3)c3ccccc32)CC1 (single isomer, unassigned) [Example 231AB, 3-{2-[4-amino-5-methyl-2-{1-[4-methylcyclo-hexylmethyl]-1H-indazol-3-yl}-6-oxo-6,7-dihydro-5H-pyrrolo[2,3-d]pyrimidin-5-yl]-1,3-oxazol-4-yl}-2,2-dimethyl-propanoic acid]
	23	0.218	71.4	CC1CCC(Cn2nc(-c3nc(N)c4c(n3)NC(=O)[C@@]4(C)c3nc(CC(C)(C)C(=O)O)cs3)c3ccc(F)cc32)CC1 (single isomer, unassigned) [Example 136AB]
80	1420	1.74		Cc1nc([C@]2(C)C(=O)Nc3nc(-c4nn(CCC(F)(F)C(F)(F)F)c5ncccc45)nc(N)c32)sc1CC(=O)O [Example 83B, (S)-(2-{4-amino-5-methyl-6-oxo-2-[1-(3,3,4,4,4-pentafluorobutyl)-1H-pyrazolo[3,4-b]pyridin-3-yl]-6,7-dihydro-5H-pyrrolo[2,3-d]pyrimidin-5-yl}-4-methyl-1,3-thiazol-5-yl)acetic acid]
119	210	0.05		CC(C)(Cc1coc(C2(C)C(=O)Nc3nc(-c4nn(Cc5cccc(F)c5)c5ccccc45)nc(N)c32)n1)C(=O)O (centres unmarked) [Example 223A, 3-(2-{4-amino-2-[1-(3-fluoro-benzyl)-1H-indazol-3-yl]-5-methyl-6-oxo-6,7-dihydro-5H-pyrrolo[2,3-d]pyrimidin-5-yl}-1,3-oxazol-4-yl)-2,2-dimethyl-propanoic acid]
115	384	0.154		Cc1ccc(Cn2nc(-c3nc(N)c4c(n3)NC(=O)[C@@]4(C)c3ccc(CCC(=O)O)cc3)c3ccc(Cl)cc32)cc1 [Example 67B, (S)-3-(4-{4-amino-2-[6-chloro-1-(4-methylbenzyl)-1H-indazol-3-yl]-5-methyl-6-oxo-6,7-dihydro-5H-pyrrolo[2,3-d]pyrimidin-5-yl}phenyl)propanoic acid]
76.5	1600	0.506		CC(C)(Cc1coc(C2(C)C(=O)Nc3nc(-c4nn(CC5CCCCO5)c5ncccc45)nc(N)c32)n1)C(=O)O (single isomer, unassigned) [Example 124AA, 3-{2-[4-amino-5-methyl-6-oxo-2-{1-[tetrahydro-2H-pyran-2-ylmethyl]-1H-pyrazolo[3,4-b]pyridin-3-yl}-6,7-dihydro-5H-pyrrolo[2,3-d]pyrimidin-5-yl]-1,3-oxazol-4-yl}-2,2-dimethylpropanoic acid]

Continued, compound first:

Structure (SMILES)	Emax [1] [%]	EC50 [1] [nM]	Ki [2] [nM]	% Activation [1] [%]
CC(C)(Cc1csc([C@]2(C)C(=O)Nc3nc(-c4nn(Cc5cccc(F)c5F)c5cc(Cl)ccc45)nc(N)c32)n1)C(=O)O [Example 181A, (S)-3-(2-{4-amino-2-[6-chloro-1-(2,3-difluorobenzyl)-1H-indazol-3-yl]-5-methyl-6-oxo-6,7-dihydro-5H-pyrrolo[2,3-d]pyrimidin-5-yl}-1,3-thiazol-4-yl)-2,2-dimethyl-propanoic acid]	112	278	0.094	
CC1(c2ccc(/C=C/C(=O)O)cc2)C(=O)Nc2nc(-c3nn(Cc4ccccc4F)c4ncccc34)nc(N)c21 (centres unmarked) [Example 217A, (2E)-3-(4-{4-amino-2-[1-(2-fluorobenzyl)-1H-pyrazolo[3,4-b]pyridin-3-yl]-5-methyl-6-oxo-6,7-dihydro-5H-pyrrolo[2,3-d]pyrimidin-5-yl}phenyl)prop-2-enoic acid]	124	1420	0.067	
CC1(c2cnn(CCC(=O)O)n2)C(=O)Nc2nc(-c3nn(CCC(F)(F)C(F)(F)F)c4ncccc34)nc(N)c21 (centres unmarked) [Example 109B, 3-(4-{4-Amino-5-methyl-6-oxo-2-[1-(3,3,4,4,4-pentafluorobutyl)-1H-pyrazolo[3,4-b]pyridin-3-yl]-6,7-dihydro-5H-pyrrolo[2,3-d]pyrimidin-5-yl}-2H-1,2,3-triazol-2-yl)propanoic acid]	78	1660	2	
CC1(c2ccc(CCc3nn[nH]n3)cn2)C(=O)Nc2nc(-c3nn(Cc4ccccc4F)c4cc(Cl)ccc34)nc(N)c21 (single isomer, unassigned) [Example 247A, 5-{5-[2-(2H-tetrazol-5-yl)ethyl]pyridin-2-yl}-4-amino-2-[6-chloro-1-(2-fluorobenzyl)-1H-indazol-3-yl]-5-methyl-5,7-dihydro-6H-pyrrolo[2,3-d] pyrimidin-6-one]		4020	0.242	
Cc1oc(C2(C)C(=O)Nc3nc(-c4nn(Cc5cccc(F)c5)c5cc(Cl)ccc45)nc(N)c32)nc1CC(C)(C)C(=O)O (centres unmarked) [Example 176B, 3-(2-{4-amino-2-[6-chloro-1-(3-fluorobenzyl)-1H-indazol-3-yl]-5-methyl-6-oxo-6,7-dihydro-5H-pyrrolo[2,3-d]pyrimidin-5-yl}-5-methyl-1,3-oxazol-4-yl)-2,2-dimethyl-propanoic acid]	118	1470	0.13	
CC1(c2nc(CCC(F)(F)C(=O)O)co2)C(=O)Nc2nc(-c3nn(Cc4cccc(F)c4)c4cc(F)ccc34)nc(N)c21 (centres unmarked) [Example 135A, 4-(2-{4-amino-2-[6-fluoro-1-(3-fluorobenzyl)-1H-indazol-3-yl]-5-methyl-6-oxo-6,7-dihydro-5H-pyrrolo[2,3-d]pyrimidin-5-yl}-1,3-oxazol-4-yl)-2,2-difluorobutanoic acid]	92.9	254	0.275	
CC(C)(Cc1coc(C2(C)C(=O)Nc3nc(-c4nn(Cc5c(F)ccc(F)c5F)c5cc(Cl)ccc45)nc(N)c32)n1)C(=O)O (centres unmarked) [Example 189A, 3-(2-{4-amino-2-[6-chloro-1-(2,3,6-trifluorobenzyl)-1H-indazol-3-yl]-5-methyl-6-oxo-6,7-dihydro-5H-pyrrolo[2,3-d]pyrimidin-5-yl}-1,3-oxazol-4-yl)-2,2-dimethyl-propanoic acid]	116	51	0.049	
CC(C)(Cc1csc([C@]2(C)C(=O)Nc3nc(-c4nn(CCC(F)(F)C(F)(F)F)c5ncccc45)nc(N)c32)n1)C(=O)NO [Example 97B, (S)-3-(2-{4-Amino-5-methyl-6-oxo-2-[1-(3,3,4,4,4-pentafluorobutyl)-1H-pyrazolo[3,4-b]pyridin-3-yl]-6,7-dihydro-5H-pyrrolo[2,3-d]pyrimidin-5-yl}-1,3-thiazol-4-yl)-N-hydroxy-2,2-dimethylpropanamide]	122	1150	0.799	
